Species: Rattus norvegicus
Assay: DrugMatrix - Regimen: Daily Repeat
Format: toxicity, organism-based, Sprague-Dawley
Set-up: regimen Daily Repeat, gender Male, age 6-8 weeks
Settings: in vivo, sc, route subcutaneous, […]; for ABSOLUTE BASOPHIL / ABSOLUTE EOSINOPHIL / ABSOLUTE LYMPHOCYTE / ABSOLUTE MONOCYTE / ABSOLUTE SEGMENTED NEUTROPHIL / BASOPHIL / EOSINOPHIL / ERYTHROCYTE COUNT / HEMATOCRIT / HEMOGLOBIN / LEUKOCYTE COUNT / LYMPHOCYTE / MEAN CORPUSCULAR HEMOGLOBIN / MEAN CORPUSCULAR HEMOGLOBIN CONCENTRATION / MEAN CORPUSCULAR VOLUME / MONOCYTE / NEUTROPHIL / NUCLEATED RED BLOOD CELLS / PLATELET COUNT: tissue Blood; for ALANINE AMINOTRANSFERASE / ALBUMIN / ALKALINE PHOSPHATASE / ASPARTATE AMINOTRANSFERASE / BLOOD UREA NITROGEN / CARBON DIOXIDE / CHLORIDE / CHOLESTEROL / CREATINE PHOSPHOKINASE / CREATININE / GLUCOSE / LACTATE DEHYDROGENASE / LIPASE / PHOSPHORUS / POTASSIUM / SODIUM / TOTAL BILIRUBIN / TOTAL PROTEIN / URIC ACID: tissue Plasma
[1] = 0.8 mg/kg, 120 h, dose level Low, time 5 day
[2] = 8 mg/kg, 72 h, dose level High, time 3 day
[3] = 8 mg/kg, 120 h, dose level High, time 5 day

With Oc1c(Cl)cc(Cl)c(Cl)c1Cc1c(O)c(Cl)cc(Cl)c1Cl [HEXACHLOROPHENE] the “ABSOLUTE BASOPHIL” value [1] was 0 CELLS/uL, the “ABSOLUTE EOSINOPHIL” value [1] was 0 CELLS/uL and the “ABSOLUTE LYMPHOCYTE” value [1] was 15077 CELLS/uL. For the same compound, the “ABSOLUTE MONOCYTE” value [1] was 281 CELLS/uL, the “ABSOLUTE SEGMENTED NEUTROPHIL” value [1] was 1342 CELLS/uL and the BASOPHIL [1] was 0%. For the same compound, the EOSINOPHIL [1] was 0%, the “ERYTHROCYTE COUNT” value [1] was 5.52 x10E6/uL and the HEMATOCRIT [1] was 35.07%. The HEMOGLOBIN [1] was 13.27 G/DL, the “LEUKOCYTE COUNT” value [1] was 16.7 x10E3/uL and the LYMPHOCYTE [1] was 90.33%. The “MEAN CORPUSCULAR HEMOGLOBIN” value [1] was 24.07 pg, the “MEAN CORPUSCULAR HEMOGLOBIN CONCENTRATION” value [1] was 37.9 G/DL and the “MEAN CORPUSCULAR VOLUME” value [1] was 63.53 fL. The MONOCYTE [1] was 1.67%, the NEUTROPHIL [1] was 8% and the “NUCLEATED RED BLOOD CELLS” value [1] was 0 /100WBC. For the same compound, the “PLATELET COUNT” value [1] was 1358.33 x10E3/uL, the “ALANINE AMINOTRANSFERASE” value [1] was 45.33 u/L and the ALBUMIN [1] was 4.07 G/DL. For the same compound, the “ALKALINE PHOSPHATASE” value [1] was 296.33 u/L, the “ASPARTATE AMINOTRANSFERASE” value [1] was 78 u/L and the “BLOOD UREA NITROGEN” value [1] was 15.67 mg/dL. The “CARBON DIOXIDE” value [1] was 26.67 mmol/L, the CHLORIDE [1] was 104.67 MEQ/L and the CHOLESTEROL [1] was 74.67 mg/dL. For the same compound, the “CREATINE PHOSPHOKINASE” value [1] was 237 u/L, the CREATININE [1] was 0.35 mg/dL and the GLUCOSE [1] was 154.33 mg/dL. The “LACTATE DEHYDROGENASE” value [1] was 156 u/L, the LIPASE [1] was 11 u/L and the PHOSPHORUS [1] was 11.83 mg/dL. The POTASSIUM [1] was 6.6 MEQ/L, the SODIUM [1] was 144.67 MEQ/L and the “TOTAL BILIRUBIN” value [1] was 0.13 mg/dL. The “TOTAL PROTEIN” value [1] was 5.8 G/DL, the “URIC ACID” value [1] was 1.47 mg/dL and the “ABSOLUTE BASOPHIL” value [2] was 0 CELLS/uL. For the same compound, the “ABSOLUTE EOSINOPHIL” value [2] was 49.67 CELLS/uL, the “ABSOLUTE LYMPHOCYTE” value [2] was 12140.67 CELLS/uL and the “ABSOLUTE MONOCYTE” value [2] was 337 CELLS/uL. The “ABSOLUTE SEGMENTED NEUTROPHIL” value [2] was 1839.33 CELLS/uL, the BASOPHIL [2] was 0% and the EOSINOPHIL [2] was 0.33%. For the same compound, the “ERYTHROCYTE COUNT” value [2] was 5.89 x10E6/uL, the HEMATOCRIT [2] was 36.63% and the HEMOGLOBIN [2] was 13.43 G/DL. The “LEUKOCYTE COUNT” value [2] was 14.37 x10E3/uL, the LYMPHOCYTE [2] was 84.67% and the “MEAN CORPUSCULAR HEMOGLOBIN” value [2] was 22.8 pg. The “MEAN CORPUSCULAR HEMOGLOBIN CONCENTRATION” value [2] was 36.7 G/DL, the “MEAN CORPUSCULAR VOLUME” value [2] was 62.27 fL and the MONOCYTE [2] was 2.33%. The NEUTROPHIL [2] was 12.67%, the “NUCLEATED RED BLOOD CELLS” value [2] was 0 /100WBC and the “PLATELET COUNT” value [2] was 1253 x10E3/uL. The “ALANINE AMINOTRANSFERASE” value [2] was 52 u/L, the ALBUMIN [2] was 4.1 G/DL and the “ALKALINE PHOSPHATASE” value [2] was 314.33 u/L. The “ASPARTATE AMINOTRANSFERASE” value [2] was 87.67 u/L, the “BLOOD UREA NITROGEN” value [2] was 16.67 mg/dL and the “CARBON DIOXIDE” value [2] was 22.33 mmol/L. For the same compound, the CHLORIDE [2] was 105.33 MEQ/L, the CHOLESTEROL [2] was 87.33 mg/dL and the “CREATINE PHOSPHOKINASE” value [2] was 258.67 u/L. For the same compound, the CREATININE [2] was 0.21 mg/dL, the GLUCOSE [2] was 187.33 mg/dL and the “LACTATE DEHYDROGENASE” value [2] was 132 u/L. The LIPASE [2] was 9.67 u/L, the PHOSPHORUS [2] was 11.9 mg/dL and the POTASSIUM [2] was 5.67 MEQ/L. The SODIUM [2] was 146.53 MEQ/L, the “TOTAL BILIRUBIN” value [2] was 0.17 mg/dL and the “TOTAL PROTEIN” value [2] was 5.93 G/DL. The “URIC ACID” value [2] was 2.47 mg/dL, the “ABSOLUTE BASOPHIL” value [3] was 0 CELLS/uL and the “ABSOLUTE EOSINOPHIL” value [3] was 154 CELLS/uL. The “ABSOLUTE LYMPHOCYTE” value [3] was 13307.33 CELLS/uL, the “ABSOLUTE MONOCYTE” value [3] was 238 CELLS/uL and the “ABSOLUTE SEGMENTED NEUTROPHIL” value [3] was 1100.67 CELLS/uL. For the same compound, the BASOPHIL [3] was 0%, the EOSINOPHIL [3] was 1% and the “ERYTHROCYTE COUNT” value [3] was 5.91 x10E6/uL. For the same compound, the HEMATOCRIT [3] was 35.87%, the HEMOGLOBIN [3] was 13.17 G/DL and the “LEUKOCYTE COUNT” value [3] was 14.8 x10E3/uL. For the same compound, the LYMPHOCYTE [3] was 90%, the “MEAN CORPUSCULAR HEMOGLOBIN” value [3] was 22.3 pg and the “MEAN CORPUSCULAR HEMOGLOBIN CONCENTRATION” value [3] was 36.7 G/DL. The “MEAN CORPUSCULAR VOLUME” value [3] was 60.8 fL, the MONOCYTE [3] was 1.67% and the NEUTROPHIL [3] was 7.33%. For the same compound, the “NUCLEATED RED BLOOD CELLS” value [3] was 0 /100WBC, the “PLATELET COUNT” value [3] was 1301.67 x10E3/uL and the “ALANINE AMINOTRANSFERASE” value [3] was 46 u/L. For the same compound, the ALBUMIN [3] was 4 G/DL, the “ALKALINE PHOSPHATASE” value [3] was 378.33 u/L and the “ASPARTATE AMINOTRANSFERASE” value [3] was 85 u/L. The “BLOOD UREA NITROGEN” value [3] was 16.33 mg/dL, the “CARBON DIOXIDE” value [3] was 27.33 mmol/L and the CHLORIDE [3] was 104.67 MEQ/L. The CHOLESTEROL [3] was 70.33 mg/dL, the “CREATINE PHOSPHOKINASE” value [3] was 346.67 u/L and the CREATININE [3] was 0.2 mg/dL. For the same compound, the GLUCOSE [3] was 174 mg/dL, the “LACTATE DEHYDROGENASE” value [3] was 129.67 u/L and the LIPASE [3] was 9.33 u/L. The PHOSPHORUS [3] was 11.03 mg/dL, the POTASSIUM [3] was 5.65 MEQ/L and the SODIUM [3] was 146 MEQ/L. The “TOTAL BILIRUBIN” value [3] was 0.2 mg/dL, the “TOTAL PROTEIN” value [3] was 5.83 G/DL and the “URIC ACID” value [3] was 1.63 mg/dL.
